Each compound was assayed against T1, human CaSR (Homo sapiens, UniProt P41180, E1011Q) (assay: Evaluation of CaSR agonistic activity (293E cells transfected with hCaSR, Ca2+ fluorescent indicator, FLIPR)). Settings: 293E cells expressing human CaSR; concentration giving activation rate 50%.
T1 construct: expressed in transfected cells; host or cells: 293E cells (HEK293 expressing EBNA1, ATCC CRL-10852), transient transfection of hCaSR/pcDNA3.1
T1 sequence (P41180 20-1078 E1011Q): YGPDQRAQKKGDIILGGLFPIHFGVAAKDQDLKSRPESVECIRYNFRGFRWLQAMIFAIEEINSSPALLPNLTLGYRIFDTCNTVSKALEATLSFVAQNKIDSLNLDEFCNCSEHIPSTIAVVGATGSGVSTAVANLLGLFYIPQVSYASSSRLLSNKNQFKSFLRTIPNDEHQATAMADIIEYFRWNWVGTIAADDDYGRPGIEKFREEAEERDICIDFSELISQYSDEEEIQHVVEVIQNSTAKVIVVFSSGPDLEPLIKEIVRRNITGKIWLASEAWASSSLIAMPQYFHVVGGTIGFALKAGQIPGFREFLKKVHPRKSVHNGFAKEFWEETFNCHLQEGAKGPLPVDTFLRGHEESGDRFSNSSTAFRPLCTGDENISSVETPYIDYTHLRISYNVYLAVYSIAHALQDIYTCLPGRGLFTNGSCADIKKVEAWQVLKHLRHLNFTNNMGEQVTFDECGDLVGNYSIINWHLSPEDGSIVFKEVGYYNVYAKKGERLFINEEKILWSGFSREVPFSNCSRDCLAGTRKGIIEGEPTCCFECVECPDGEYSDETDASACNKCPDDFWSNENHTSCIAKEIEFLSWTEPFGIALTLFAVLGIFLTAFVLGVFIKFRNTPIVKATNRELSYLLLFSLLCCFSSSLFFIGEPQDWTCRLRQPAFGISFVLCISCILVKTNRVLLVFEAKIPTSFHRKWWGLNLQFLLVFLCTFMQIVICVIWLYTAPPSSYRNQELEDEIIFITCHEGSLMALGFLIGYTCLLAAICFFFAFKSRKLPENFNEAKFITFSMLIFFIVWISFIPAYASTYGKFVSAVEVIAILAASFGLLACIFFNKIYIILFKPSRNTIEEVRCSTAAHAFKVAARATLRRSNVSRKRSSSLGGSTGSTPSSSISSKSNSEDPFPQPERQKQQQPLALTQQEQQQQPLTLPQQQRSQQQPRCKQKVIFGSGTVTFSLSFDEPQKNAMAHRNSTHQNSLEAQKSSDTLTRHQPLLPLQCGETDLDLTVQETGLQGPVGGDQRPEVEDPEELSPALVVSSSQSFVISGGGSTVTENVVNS
Assay type: cell-based
Description: 293E cells (HEK293 cell expressing EBNA1, ATCC No. CRL-10852) were cultured in DMEM containing 10% fetal bovine serum (Dulbecco's modified Eagle medium containing […] Glucose, by NACALAI TESQUE, INC.), in the presence of 250 μg/mL of G418. The cells were spread on a petri dish of 10 cm diameter in 1.8×10^6 cells/15 mL. After leaving them in the CO2 incubator (5% CO2, 37° C.) for 24 hours, plasmid expressing human CaSR: hCaSR/pcDNA3.1 was transfected with a transfection reagent: Mirus TransIT 293 (by Takara Bio Inc.). After leaving it in the CO2 incubator for 24 hours, the cells were collected by DMEM containing 10% fetal bovine serum and seeded on poly-D-lysine coat 384 well plate (by Falcon) in 15,000 cells/well. After leaving them in the CO2 incubator for 24 hours, the medium was removed. Then, 50 μL/well of Ca^2+ fluorescent indicator: Calcium 4 Assay Kit (by Molecular Devices) that was dissolved in an assay buffer (146 mM NaCl, 5 mM KCl, 1 mM MgSO4, 1 mg/mL Glucose, 20 mM HEPES (pH 7.2), 1.5 mM CaCl2) was added thereto, and left at 37° C. for 1 hour and at room temperature for 30 minutes to absorb the fluorescent indicator. The 384 well plate was transferred to FLIPR (by Molecular Devices). Then, 12.5 μL/well of a compound that was dissolved in a 0.1% BSA containing assay buffer was added thereto, and change in fluorescence intensity was measured for 3 minutes. Meanwhile, Compound No. 20 was purchased from Bachem.
The difference between the maximum value and the minimum value (RFU(Max−Min)) of the fluorescence intensity before and after adding a compound was automatically calculated by FLIPR. RFU(Max−Min) when adding a compound in maximum concentration was defined as 100%; and RFU(Max−Min) when adding DMSO instead of the compound in the same concentration as that of the compound was defined as 0%.

EC50 [nM]	Compound
2300	N[C@@H](CCC(=O)Nc1cc(I)ccc1S(=O)(=O)O)C(=O)O [Compound No. 41, N^5-(5-iodo-2-sulfophenyl)-L-glutamine]
130	Cc1ccc(NC(=O)CC[C@H](N)C(=O)O)cc1S(=O)(=O)O [Compound No. 5, N^5-(4-methyl-3-sulfophenyl)-L-glutamine]
530	N[C@@H](CCC(=O)Nc1cccc(P(=O)(O)O)c1)C(=O)O [Compound No. 18, N^5-(3-phosphonophenyl)-L-glutamine]
86	N[C@@H](CCC(=O)Nc1ccc(O)c(S(=O)(=O)O)c1)C(=O)O [Compound No. 11, N^5-(4-hydroxy-3-sulfophenyl)-L-glutamine]
7900	N[C@@H](CCC(=O)Nc1ccc(S(=O)(=O)O)c(I)c1)C(=O)O [Compound No. 40, N^5-(3-iodo-4-sulfophenyl)-L-glutamine]
5.7	Cc1c(Cl)cc(NC(=O)CC[C@H](N)C(=O)O)cc1S(=O)(=O)O [Compound No. 21, N^5-(3-chloro-4-methyl-5-sulfophenyl)-L-glutamine]
59	Cc1cc(C)c(S(=O)(=O)O)cc1NC(=O)CC[C@H](N)C(=O)O [Compound No. 4, N^5-(2,4-dimethyl-5-sulfophenyl)-L-glutamine]
100	N[C@@H](CCC(=O)Nc1cc(S(=O)(=O)O)ccc1O)C(=O)O [Compound No. 8, N^5-(2-hydroxy-5-sulfophenyl)-L-glutamine]
2.9	N[C@@H](CCC(=O)Nc1cc(S(=O)(=O)O)ccc1Cl)C(=O)O [Compound No. 37, N^5-(2-chloro-5-sulfophenyl)-L-glutamine]
330	N[C@@H](CCC(=O)Nc1ccc(O)c(C(=O)O)c1)C(=O)O [Compound No. 28, 6-hydroxy-3-(L-γ-glutamylamino)benzoic acid]
6700	N[C@@H](CCC(=O)Nc1ccc(S(=O)(=O)O)c(Cl)c1)C(=O)O [Compound No. 38, N^5-(3-chloro-4-sulfophenyl)-L-glutamine]
2300	COc1ccc(NC(=O)CC[C@H](N)C(=O)O)cc1S(=O)(=O)O [Compound No. 2, N^5-(4-methoxy-3-sulfophenyl)-L-glutamine]
270	N[C@@H](CCC(=O)Nc1ccc(Cl)c(S(=O)(=O)O)c1)C(=O)O [Compound No. 9, N^5-(4-chloro-3-sulfophenyl)-L-glutamine]
560	COc1ccc(S(=O)(=O)O)cc1NC(=O)CC[C@H](N)C(=O)O [Compound No. 3, N^5-(2-methoxy-5-sulfophenyl)-L-glutamine]
17	N[C@@H](CCC(=O)Nc1cccc(S(=O)(=O)O)c1O)C(=O)O [Compound No. 10, N^5-(2-hydroxy-3-sulfophenyl)-L-glutamine]

Continued, compound first:

Compound	EC50 [nM]
Cc1c(NC(=O)CC[C@H](N)C(=O)O)cccc1C(=O)O [Compound No. 31, 3-(L-γ-glutamylamino)-2-methyl-benzoic acid]	3700
N[C@@H](CCC(=O)Nc1cccc([N+](=O)[O-])c1)C(=O)O [Compound No. 19, N^5-(3-nitrophenyl)-L-glutamine]	400
Cc1c(Cl)cc(NC(=O)OC[C@H](N)C(=O)O)cc1S(=O)(=O)O [Compound No. 33, O-{[(3-chloro-4-methyll-5-sulfophenyl)amino]carbonyl}-L-serine]	2.1
N[C@@H](COC(=O)Nc1cccc(S(=O)(=O)O)c1)C(=O)O [Compound No. 13, O-{[(3-sulfophenyl)amino]carbonyl}-L-serine]	72
N[C@@H](CCC(=O)Nc1cc(Cl)cc(C(=O)O)c1Cl)C(=O)O [Compound No. 24, 2,5-dichloro-3-(L-γ-glutamylamino)benzoic acid]	22
N[C@@H](CCC(=O)Nc1cc(Cl)cc(C(=O)O)c1)C(=O)O [Compound No. 32, 5-chloro-3-(L-γ-glutamylamino)benzoic acid]	8.8
N[C@@H](COC(=O)Nc1cc(Cl)cc(S(=O)(=O)O)c1O)C(=O)O [Compound No. 34, sodium 3-{[(2S)-2-amino-2-carboxyethoxycarbonyl]amino}-5-chloro-2-hydroxybenzenesulfonate]	1.9
Cc1c(Cl)cc(S(=O)(=O)O)cc1NC(=O)OC[C@H](N)C(=O)O [Compound No. 35, O-{[(3-chloro-2-methyl-5-sulfophenyl)amino]carbonyl}-L-serine]	3.7
COc1c(NC(=O)CC[C@H](N)C(=O)O)cccc1C(=O)O [Compound No. 27, 2-methoxy-3-(L-γ-glutamylamino)benzoic acid]	150
N[C@@H](CCC(=O)Nc1cc(O)cc(C(=O)O)c1)C(=O)O [Compound No. 30, 5-hydroxy-3-(L-γ-glutamylamino)benzoic acid]	2900
N[C@@H](CCC(=O)Nc1ccccc1)C(=O)O [Compound No. 20, N-γ-glutamyl-aniline]	940
COc1c(NC(=O)OC[C@H](N)C(=O)O)cc(Cl)cc1S(=O)(=O)O [Compound No. 36, O-{[(5-chloro-2-methoxy-3-sulfophenyl)amino]carbonyl}-L-serine]	3500
CN(C(=O)CC[C@H](N)C(=O)O)c1cccc(S(=O)(=O)O)c1 [Compound No. 12, N^5-methyl-N^5-(3-sulfophenyl)-L-glutamine]	200
N[C@@H](CCC(=O)Nc1cc([N+](=O)[O-])cc(S(=O)(=O)O)c1O)C(=O)O [Compound No. 23, N^5-(2-hydroxy-5-nitro-3-sulfophenyl)-L-glutamine]	890
Cc1c(Cl)cc(S(=O)(=O)O)cc1NC(=O)CC[C@H](N)C(=O)O [Compound No. 22, N^5-(3-chloro-2-methyl-5-sulfophenyl)-L-glutamine]	1.4
N[C@@H](CCC(=O)Nc1cccc(C(=O)O)c1)C(=O)O [Compound No. 14, 3-(L-γ-glutamylamino)benzoic acid]	2000
N[C@@H](CCC(=O)Nc1cccc(C(=O)O)c1Cl)C(=O)O [Compound No. 25, 2-chloro-3-(L-γ-glutamylamino)benzoic acid]	970
COP(=O)(O)c1cccc(NC(=O)CC[C@H](N)C(=O)O)c1 [Compound No. 17, N^5-{3-[hydroxyl(methoxy)phosphoryl]phenyl}-L-glutamine]	2000
N[C@@H](CCC(=O)Nc1cc(C(=O)O)ccc1Cl)C(=O)O [Compound No. 26, 4-chloro-3-(L-γ-glutamylamino)benzoic acid]	160
N[C@@H](CCC(=O)Nc1cccc(C(=O)O)c1O)C(=O)O [Compound No. 15, 3-(L-γ-glutamylamino)-2-hydroxybenzoic acid]	34
N[C@@H](CCC(=O)Nc1cc(Br)cc(C(=O)O)c1)C(=O)O [Compound No. 16, 3-bromo-5-(L-γ-glutamylamino)benzoic acid]	48
N[C@@H](CCC(=O)Nc1cc(S(=O)(=O)O)cc([N+](=O)[O-])c1O)C(=O)O [Compound No. 6, N^5-(2-hydroxy-3-nitro-5-sulfophenyl)-L-glutamine]	2700
Cc1ccc(C(=O)O)cc1NC(=O)CC[C@H](N)C(=O)O [Compound No. 29, 4-methyl-3-(L-γ-glutamylamino)benzoic acid]	530

From patent US9174932B2, “CaSR agonists” (AJINOMOTO CO., INC., priority 2008, dated 2015)
